Laboratory results published in patent US9808438B2, “Method for treating mucositis” (ENZYCHEM LIFESCIENCES CORPORATION, priority 2015, dated 2017).
“And” between values parts separate entries of the source, which are not always exact repeats. Equal values may be shown once.

How the values were obtained:
[1] = system: recurrent oral ulceration (ROU); assay: In vivo effect of PLAG on recurrent oral ulceration in patients, self-reported scoring system; design: species or system human
Source text: Total 44 patients with recurrent oral ulceration (ROU) between 20 and 80 years old (34 female patients and 10 male patients, Disease; RAS ([…]), BD (27 patients), SLE (1 patient), Mean age: 49.3±9.0) were enrolled in the study. The diagnosis of ROU was made based upon the history and the physical examination on oral mucosa by physicians. We included three conditions with recurrent oral ulceration: Recurrent aphthous stomatitis (RAS), Behcet's disease (BD), Systemic lupus erythematosus (SLE). After completing baseline assessments, 250 mg of PLAG was administered to the patients orally twice a day (250 mg PLAG per tablet, 500 mg/day) for 2-4 weeks. The change of recurrent oral ulcer in the patients was evaluated at 2 or 4 weeks after the treatment by using self-reported scoring system (total 12 points), including the following three measurements: change of ulcer frequency (Likert 0-4), Change of ulcer severity: pain & size (Likert 0-4) and Change of ulcer duration (Likert 0-4).

sepsis animal model = conditions: cecal-ligation-puncture sepsis model; cited from earlier work
[2] = GLP toxicity test; cited from earlier work
[3] = system: hematopoietic stem cells and megakaryocytes; conditions: cited from earlier work
[4] = 44 patients, relation to PLAG cannot be excluded
[5] = average of 44 patients, 500 mg/day orally, 2-4 weeks

SMILES: CCCCC/C=C\C/C=C\CCCCCCCC(=O)OC(COC(C)=O)COC(=O)CCCCCCCCCCCCCCC (stereo not shown) [PLAG, 1-palmitoyl-2-linoleoyl-3-acetylglycerol]
- side effect of PLAG ([1]; 44 patients, 500 mg/day orally, 2-4 weeks): any clear side effect of PLAG was not identified
- patients with mild dyspepsia [1, 4]: two
- patients with mild skin rash [1, 4]: one
- patients with mild taste change (metallic taste) [1, 4]: one
- effect on symptoms of oral ulceration ([1]; administration of PLAG to the patients): significantly improves the symptoms of oral ulceration
- change of ulcer duration (Likert 0-4), average [1, 5]: 1.86±0.72 and 1.86
- change of ulcer frequency (Likert 0-4), average [1, 5]: 2.07±0.55 and 2.07
- change of ulcer severity: pain & size (Likert 0-4), average [1, 5]: 2.13±0.68 and 2.14
- total (sum of the three scores), average [1, 5]: 5.93±1.76 points and 5.93 points
- significant improvement ([1]; individual patient, 1 or 0 from sum of the three scores): 1 (considered to be significantly improved when the sum of the three scores was more than 5 points)
- survivability ratio of animals (sepsis animal model): increases survivability ratio of animals
- toxicity [2]: no toxicity
- growth-stimulating activities [3]: have growth-stimulating activities of hematopoietic stem cells and megakaryocytes
